≈ marks a conversion by molar mass, not a printed value.
What was measured:
[1] = system: M. mucogenium group; experiment: MIC (CLSI broth dilution), RGM isolates; type: cell-based
[2] = system: Mycobacterium fortuitum; experiment: MIC by broth microdilution in CAMHB, clinical isolates; type: cell-based
Protocol: (§1) A total of 24 clinical isolates of Mycobacterium abscessus, 22 clinical isolates of Mycobacterium chelonae and 20 clinical isolates of Mycobacterium fortuitum were tested in the study. The study also used the antibiotics tigecycline, doxycycline and amikacin for comparison purposes. […] Amikacin was dissolved in DMSO prior to freezing at −20° C. For susceptibility testing, stock solutions of antibiotic compounds were serially diluted in 50 μL of cation adjusted Mueller-Hinton broth (CAMHB) in polystryrene 96-well round-bottom microtiter plates. To each well, 50 μL of the appropriate mycobacterial cell suspension was added to yield a final concentration of about 1×10^5 CFU/mL. The inoculum used for each isolate was measured by titration in saline with Tween 80 and plating on MH agar. The Mycobacterium abscessus and Mycobacterium fortuitum titer plates were incubated at 37° C. in ambient air for 3-4 days and 5-7 days, respectively. The Mycobacterium chelonae titer plates were incubated at 30° C. in ambient air for 3-5 days. Each isolate was tested at least in duplicate. The MIC was defined as the lowest concentration of antimicrobial agent yielding no visible turbidity.

[3] = system: Mycobacterium chelonae; experiment: as above; type: cell-based
Protocol: as §1

[4] = system: Mycobacterium abscessus; experiment: as above; type: cell-based
Protocol: as §1

[5] = system: M. immunogenum group; experiment: MIC (CLSI broth dilution), RGM isolates; type: cell-based; conditions: M. immunogenum
[6] = system: M. fortuitum group; experiment: MIC (CLSI broth dilution), RGM isolates; type: cell-based
[7] = system: rapid-growing mycobacteria (RGM) isolates; experiment: MIC (CLSI broth dilution), all RGM isolates; type: cell-based, nontuberculous mycobacteria; conditions: all 50 RGM isolates
[8] = system: M. abscessus complex; experiment: MIC (CLSI broth dilution), RGM isolates; type: cell-based
[9] = system: M. smegmatis group; experiment: MIC (CLSI broth dilution), RGM isolates; type: cell-based
[10] = system: M. chelonae; experiment: MIC (CLSI broth dilution), RGM isolates; type: cell-based
[11] = 24 clinical isolates (tigecycline: subset N=14)

C[C@H]1c2cccc(O)c2C(=O)C2=C(O)[C@]3(O)C(=O)C(C(N)=O)=C(O)[C@@H](N(C)C)[C@@H]3[C@@H](O)[C@@H]21 [Doxycycline, doxycycline]
MIC ([1]; isolate 39, M. mucogenicum group, M. mucogenicum): 0.25 µg/mL (≈ 0.563 µM)
MIC ([1]; isolate 40, M. mucogenicum group, M. mucogenicum): ≤0.12 µg/mL
MIC ([1]; isolate 41, M. mucogenicum group, M. mucogenicum): ≤0.12 µg/mL
MIC ([1]; isolate 42, M. mucogenicum group, M. mucogenicum): ≤0.12 µg/mL
MIC ([1]; isolate 43, M. mucogenicum group, M. phocaicum): ≤0.12 µg/mL
MIC ([1]; isolate 44, M. mucogenicum group, M. phocaicum): >8 µg/mL
MIC ([1]; isolate 45, M. mucogenicum group, M. phocaicum): >8 µg/mL
MIC ([1]; isolate 46, M. mucogenicum group, M. phocaicum): >8 µg/mL
MIC ([1]; isolate 47, M. mucogenicum group, M. phocaicum): 0.25 µg/mL (≈ 0.563 µM)
MIC ([1]; isolate 48, M. mucogenicum group, M. phocaicum): 4 µg/mL (≈ 9 µM)
MIC50 ([2]; 20 clinical isolates): 8 µg/mL (≈ 18 µM)
MIC90 ([2]; 20 clinical isolates): 64 µg/mL (≈ 144 µM)
MIC ([2]; isolate No. 1, 3349): 16 µg/mL (≈ 36 µM)
MIC ([2]; isolate No. 2, 3499): 0.06 µg/mL (≈ 0.135 µM)
MIC ([2]; isolate No. 3, 2797): >64 µg/mL
MIC ([2]; isolate No. 4, 32): 0.125 µg/mL (≈ 0.281 µM)
MIC ([2]; isolate No. 5, 33): 0.125 µg/mL (≈ 0.281 µM)
MIC ([2]; isolate No. 6, 3489): 8 µg/mL (≈ 18 µM)
MIC ([2]; isolate No. 7, 3491): <0.06 µg/mL
MIC ([2]; isolate No. 8, 54): <0.06 µg/mL
MIC ([2]; isolate No. 9, 38): 0.5 µg/mL (≈ 1.13 µM)
MIC ([2]; isolate No. 10, 36): 0.125 µg/mL (≈ 0.281 µM)
MIC ([2]; isolate No. 11, 3480): 16 µg/mL (≈ 36 µM)
MIC ([2]; isolate No. 12, 3126): 16 µg/mL (≈ 36 µM)
MIC ([2]; isolate No. 13, 3579): 16 µg/mL (≈ 36 µM)
MIC ([2]; isolate No. 14, 7484): 64 µg/mL (≈ 144 µM)
MIC ([2]; isolate No. 15, 3488): 32 µg/mL (≈ 72 µM)
MIC ([2]; isolate No. 16, 3276): 0.25 µg/mL (≈ 0.563 µM)
MIC ([2]; isolate No. 17, 3442): 0.25 µg/mL (≈ 0.563 µM)
MIC ([2]; isolate No. 18, 3316): 32 µg/mL (≈ 72 µM)
MIC ([2]; isolate No. 19, 3490): 16 µg/mL (≈ 36 µM)
MIC ([2]; isolate No. 20, 2491): >64 µg/mL
MIC50 ([3]; 22 clinical isolates): 32 µg/mL (≈ 72 µM)
MIC90 ([3]; 22 clinical isolates): 64 µg/mL (≈ 144 µM)
MIC ([3]; isolate No. 1, MC 7323): 64 µg/mL (≈ 144 µM)
MIC ([3]; isolate No. 2, MC 7534): 32 µg/mL (≈ 72 µM)
MIC ([3]; isolate No. 3, MC 7368): 64 µg/mL (≈ 144 µM)
MIC ([3]; isolate No. 4, MC 7514): 32 µg/mL (≈ 72 µM)
MIC ([3]; isolate No. 5, MC 7584): 64 µg/mL (≈ 144 µM)
MIC ([3]; isolate No. 6, MC 7192): 16 µg/mL (≈ 36 µM)
MIC ([3]; isolate No. 7, MC 7466): 32 µg/mL (≈ 72 µM)
MIC ([3]; isolate No. 8, MC 7533): 64 µg/mL (≈ 144 µM)
MIC ([3]; isolate No. 9, MC 7579): 16 µg/mL (≈ 36 µM)
MIC ([3]; isolate No. 10, MC 7614): 64 µg/mL (≈ 144 µM)
MIC ([3]; isolate No. 11, MC 7414): 32 µg/mL (≈ 72 µM)
MIC ([3]; isolate No. 12, MC 7313): 32 µg/mL (≈ 72 µM)
MIC ([3]; isolate No. 13, MC 7281): 64 µg/mL (≈ 144 µM)
MIC ([3]; isolate No. 14, MC 7328): 16 µg/mL (≈ 36 µM)
MIC ([3]; isolate No. 15, MC 7294): 32 µg/mL (≈ 72 µM)
MIC ([3]; isolate No. 16, MC 14-S-03): 64 µg/mL (≈ 144 µM)
MIC ([3]; isolate No. 17, MC 14-S-04): 32 µg/mL (≈ 72 µM)
MIC ([3]; isolate No. 18, MC 14-S-05): 32 µg/mL (≈ 72 µM)
MIC ([3]; isolate No. 19, MC 14-S-06): 64 µg/mL (≈ 144 µM)
MIC ([3]; isolate No. 20, MC 14-S-07): 32 µg/mL (≈ 72 µM)
MIC ([3]; isolate No. 21, MC 35757): 32 µg/mL (≈ 72 µM)
MIC ([3]; isolate No. 22, MC 7302): 64 µg/mL (≈ 144 µM)
MIC50 [4, 11]: >64 µg/mL
MIC90 [4, 11]: >64 µg/mL
MIC ([4]; isolate No. 1, BB2): >64 µg/mL
MIC ([4]; isolate No. 2, BB4): 2 µg/mL (≈ 4.5 µM)
MIC ([4]; isolate No. 3, 5922): 16 µg/mL (≈ 36 µM)
MIC ([4]; isolate No. 4, BB3): 4 µg/mL (≈ 9 µM)
MIC ([4]; isolate No. 5, BB6): 16 µg/mL (≈ 36 µM)
MIC ([4]; isolate No. 6, 5908): >64 µg/mL
MIC ([4]; isolate No. 7, BB7): 0.25 µg/mL (≈ 0.563 µM)
MIC ([4]; isolate No. 8, 6031): 2 µg/mL (≈ 4.5 µM)
MIC ([4]; isolate No. 9, 5785): 2 µg/mL (≈ 4.5 µM)
MIC ([4]; isolate No. 10, BB8): >64 µg/mL
MIC ([4]; isolate No. 11, 6111): >64 µg/mL
MIC ([4]; isolate No. 12, 6005): >64 µg/mL
MIC ([4]; isolate No. 13, 5605): >64 µg/mL
MIC ([4]; isolate No. 14, 5931): 16 µg/mL (≈ 36 µM)
MIC ([4]; isolate No. 15, BB1): >64 µg/mL
MIC ([4]; isolate No. 16, BB5): >64 µg/mL
MIC ([4]; isolate No. 17, 5812): >64 µg/mL
MIC ([4]; isolate No. 18, 5901): >64 µg/mL
MIC ([4]; isolate No. 19, 5960): 8 µg/mL (≈ 18 µM)
MIC ([4]; isolate No. 20, 6142): >64 µg/mL
MIC ([4]; isolate No. 21, 5922): 32 µg/mL (≈ 72 µM)
MIC ([4]; isolate No. 22, LT 949): >64 µg/mL
MIC ([4]; isolate No. 23, 6025): >64 µg/mL
MIC ([4]; isolate No. 24, 6153): >64 µg/mL
MIC ([5]; isolate 35, M. immunogenum group): >8 µg/mL
MIC ([5]; isolate 36, M. immunogenum group): 1 µg/mL (≈ 2.25 µM)
MIC ([5]; isolate 37, M. immunogenum group): >8 µg/mL
MIC ([5]; isolate 38, M. immunogenum group): >8 µg/mL
MIC ([6]; isolate 23, M. fortuitum group, M. fortuitum): ≤0.12 µg/mL
MIC ([6]; isolate 24, M. fortuitum group, M. fortuitum): 0.25 µg/mL (≈ 0.563 µM)
MIC ([6]; isolate 25, M. fortuitum group, M. fortuitum): >8 µg/mL
MIC ([6]; isolate 26, M. fortuitum group, M. porcinum): 4 µg/mL (≈ 9 µM)
MIC ([6]; isolate 27, M. fortuitum group, M. porcinum): 8 µg/mL (≈ 18 µM)
MIC ([6]; isolate 28, M. fortuitum group, M. porcinum/M. boenickei): 2 µg/mL (≈ 4.5 µM)
MIC ([6]; isolate 29, M. fortuitum group, M. porcinum/M. boenickei): >8 µg/mL
MIC ([6]; isolate 30, M. fortuitum group, M. porcinum/M. boenickei): >8 µg/mL
MIC ([6]; isolate 31, M. fortuitum group, M. senegalense): ≤0.12 µg/mL
MIC ([6]; isolate 32, M. fortuitum group, M. senegalense): ≤0.12 µg/mL
MIC ([6]; isolate 33, M. fortuitum group, M. senegalense): ≤0.12 µg/mL
MIC ([6]; isolate 34, M. fortuitum group, M. senegalense): ≤0.12 µg/mL
MIC50 [7]: >8 µg/mL
MIC90 [7]: >8 µg/mL
MIC ([8]; isolate 1, M. abscessus complex, erm gene type MAB30): >8 µg/mL
MIC ([8]; isolate 2, M. abscessus complex, erm gene type MAB30): >8 µg/mL
MIC ([8]; isolate 3, M. abscessus complex, erm gene type MAB30): >8 µg/mL
MIC ([8]; isolate 4, M. abscessus complex, erm gene type massiliense): >8 µg/mL
MIC ([8]; isolate 5, M. abscessus complex, erm gene type massiliense/subsp. abs hybrid): >8 µg/mL
MIC ([8]; isolate 6, M. abscessus complex, erm gene type Type 1 abscessus): >8 µg/mL
MIC ([8]; isolate 7, M. abscessus complex, erm gene type Type 1 abscessus): >8 µg/mL
MIC ([8]; isolate 8, M. abscessus complex, erm gene type Type 1 abscessus): >8 µg/mL
MIC ([8]; isolate 9, M. abscessus complex, erm gene type Type 1 abscessus): >8 µg/mL
MIC ([8]; isolate 10, M. abscessus complex, erm gene type Type 1 abscessus): >8 µg/mL
MIC ([8]; isolate 11, M. abscessus complex, erm gene type Type 6 abscessus): >8 µg/mL
MIC ([8]; isolate 12, M. abscessus complex, erm gene type Type 6 abscessus): >8 µg/mL
MIC ([8]; isolate 13, M. abscessus complex, erm gene type Type 6 abscessus): >8 µg/mL
MIC ([8]; isolate 14, M. abscessus complex, erm gene type Type 6 abscessus): 8 µg/mL (≈ 18 µM)
MIC ([8]; isolate 15, M. abscessus complex, erm gene type Type 7 abscessus): >8 µg/mL
MIC ([8]; isolate 16, M. abscessus complex, erm gene type Type 7 abscessus): >8 µg/mL
MIC ([8]; isolate 17, M. abscessus complex, erm gene type Type 8 abscessus): >8 µg/mL
MIC ([9]; isolate 49, M. smegmatis group, M. goodii): ≤0.12 µg/mL
MIC ([9]; isolate 50, M. smegmatis group, M. wolinskyi): 1 µg/mL (≈ 2.25 µM)
MIC ([10]; isolate 18, M. chelonae): >8 µg/mL
MIC ([10]; isolate 19, M. chelonae): >8 µg/mL
MIC ([10]; isolate 20, M. chelonae): >8 µg/mL
MIC ([10]; isolate 21, M. chelonae): >8 µg/mL
MIC ([10]; isolate 22, M. chelonae): >8 µg/mL

From patent US20250332178A1, “METHODS OF TREATING MYCOBACTERIAL INFECTIONS USING TETRACYCLINE COMPOUNDS” (priority 2018, published 2025)
